From PubChem BioAssay AID1985 (Southern Research Specialized Biocontainment Screening …, 2009) come the findings set out here.

For this experiment, the system named is S. Typhi PhoP-promoter GFP reporter, fluorescence, 4 h. Put plainly: modified counter assay using GFP fluorescence, PhoP regulon inhibitor project, dose response (AID 1985).

For the molecule `CN1C(=O)NC(c2ccc(O)cc2)C(C(=O)c2cccs2)C1(O)C(F)(F)F` (centres undefined), the IC50 is 19.9 µM. With `Cc1ccc2c(c1)sc(-c1ccc(N(C)C)cc1)[n+]2C` the figure was 23.6 µM; with `Cc1ccc(C(=O)NNC(=S)NC(=O)c2ccccc2)cc1`, 62.8 µM; with `Nc1ncncc1-c1ccc(Cl)cc1`, 131 µM. Then `Nc1c(Cl)ncnc1N/N=C/c1ccccn1`, with 33.4 µM. For `CCn1cc(C(=O)O)c(=O)c2cc(F)c(N3CCN(C(=S)NC(=O)c4ccccc4C)CC3)cc21`, the IC50 was 28.2 µM.

`c1ccc(Sc2cccc3ccccc23)c(CNC2=NCCN2)c1`: the IC50 is 80 µM.

As for `Fc1ccc(Nc2c3c(nc4ccccc24)CCC3)cc1`, the IC50 is 85 µM. For `Oc1c(Br)cc(Br)cc1C=NCc1ccccc1`, the IC50 is 49.7 µM.

With `O=c1c2ccccc2[nH]c2ccc(F)cc12`, the IC50 was 71.2 µM. Then `CCCOc1ccc(C(=O)NNC(=S)NC(=O)CC)cc1`, with 78.8 µM; and `CCOc1ccc(Nc2nc(NCC3CCCO3)c3ccccc3n2)cc1` (centres undefined), with 14.2 µM.

Consider `Nc1cccc2nc3ccccc3cc12`, for which the IC50 is 44.5 µM. For the molecule `O=C(Nc1cccc(N=Cc2cc(Cl)cc(Br)c2O)c1)c1ccco1`, the IC50 is 94.3 µM. Regarding `CC(C)(C)c1ccc(OCCCCCCN2CCNCC2)cc1`, the IC50 was 127 µM. `O=C(/C=C/c1ccccc1Cl)Nc1cccc(O)c1`: the IC50 is 61.7 µM. On to `Nc1ncncc1-c1ccc([N+](=O)[O-])cc1`, for which the concentration for half-maximal inhibition (IC50) was 67.4 µM. Regarding `CN1CCN(C2Cc3cc(Cl)ccc3Sc3cc(F)ccc32)CC1` (centres undefined), the half-maximal inhibitory concentration (IC50) was 37.5 µM.

With `N/C(=N\OS(=O)(=O)c1ccccc1)c1cccnc1`, the IC50 was 9.86 µM. As to `CCn1cc(C(=O)O)c(=O)c2cc(F)c(N3CCN(C(=S)NC(=O)c4cccc(C)c4)CC3)cc21`, the IC50 is 8.37 µM. With `COc1ccc(Nc2cc(C)c3c(O)cccc3n2)cc1` the figure was 34.4 µM; with `O=C(N/N=C/c1c(O)ccc2ccccc12)c1ccc(CO)nc1`, 80.1 µM.

Consider `CCC(/C=C1\Sc2ccc(OC)cc2N1CCO)=C\c1sc2ccc(OC)cc2[n+]1CCO`, for which the IC50 was 95 µM. As for `Cc1cccc(OCC(O)Cn2c(=N)n(CCN3CCCCC3)c3ccccc32)c1` (centres undefined), the IC50 was 50.2 µM. On to `Clc1ccc(C[n+]2cc(-c3ccc(Cl)cc3)n3c2CCC3)cc1`, for which the IC50 was 101 µM. Consider `Cc1nc2ccccn2c1C(=O)N/N=C/c1ccc([N+](=O)[O-])o1`, for which the IC50 is 33.5 µM. Then `CCCc1nnc(NC(=O)c2cn(CC)c3cc(N4CCN(C)CC4)c(F)cc3c2=O)s1`, with 41.2 µM; and `Cc1nnc(N/N=C/c2ccccn2)[nH]c1=O`, with 31.1 µM. With `Clc1cccc(CN2CCc3c([nH]c4ccccc34)C2)c1Cl` the figure was 104 µM. Consider `CC1CCC(C(C)C)C(OC(=O)Cn2c(COc3ccccc3)[n+](C)c3ccccc32)C1` (centres undefined), for which the IC50 is 51.5 µM. With `O=C(Nc1cccc(C2=NCCN2)c1)Nc1cccc(C2=NCCN2)c1` the figure was 36.2 µM; with `O=C(O)c1cc2c(cn1)[nH]c1ccccc12`, 73 µM. Turning to `NC1=NC[C@@H](Cc2ccc(O)cc2)N1CCc1cc(C(F)(F)F)cc(C(F)(F)F)c1`, the IC50 was 106 µM.

Regarding `CSc1ccc2c(c1)C(N1CCN(C)CC1)Cc1ccc(F)cc1S2` (centres undefined), the IC50 is 51.8 µM.

For the molecule `[O-][n+]1cccc2c(Br)cc(Br)c(O)c21`, the IC50 is 21.9 µM. For `CCCNC(=O)c1cn(CC)c2cc(N3CCN(C)CC3)c(F)cc2c1=O`, the IC50 is 28 µM. As to `O=[N+]([O-])c1cc(O)c2ncccc2c1`, the IC50 was 12.1 µM. With `CSc1nc2cc(Oc3cccc(Cl)c3Cl)c(Cl)cc2[nH]1` the figure was 57.8 µM. For the molecule `O=c1ccc2cc3c([nH]c4ccc(Br)cc43)oc-2c1O`, the IC50 is 22.5 µM. Consider `CCOc1ccc(Nc2nc(N)c3ccccc3n2)cc1`, for which the IC50 was 44.5 µM. Take `CCC(O)(CC)C(=O)N/N=C/c1cc(Br)cc(Br)c1O`: the IC50 was 60.9 µM. Then `O=C(N/N=C/c1cc(O)ccc1Br)c1cccnc1`, with 33.2 µM; and `CCCCCCCCCC[N+](C)(C)CC/C=C1/c2ccccc2Sc2ccc(Cl)cc21`, with 16.5 µM; and `CC1(CC(=O)N/N=C/c2cc([N+](=O)[O-])c(O)cc2O)OCCO1`, with 38.4 µM.

As to `Cc1cc2nc(C3CCN(CC4COc5ccccc5O4)CC3)[nH]c2cc1C` (centres undefined), the IC50 was 15.2 µM.

Take `C/C(=C\C(=O)OCCCCCCCCC(=O)O)C[C@@H]1OC[C@H](C[C@@H]2O[C@H]2[C@@H](C)[C@H](C)O)[C@@H](O)[C@H]1O`: the IC50 was 17.5 µM. Consider `Cc1ccccc1Nc1cc(C)c2c(O)cccc2n1`, for which the IC50 is 25.5 µM.

For the molecule `CCOC(=O)c1c(-c2ccccc2)oc2ccc(OCC(O)CNCCN(C)C)cc12` (centres undefined), the IC50 is 80.2 µM. For `O=C(N/N=C/c1ccc(O)cc1O)C(=O)N/N=C/c1ccc(O)cc1O`, the IC50 is 108 µM.

As to `CCn1cc(C(=O)O)c(=O)c2cc(F)c(N3CCN(C(=O)Nc4ccccc4)CC3)cc21`, the IC50 was 21.1 µM. For `CNC[C@@H](Cc1ccccc1)NC[C@@H](CC1CCCCC1)NCCCc1ccccc1`, the IC50 was 41.8 µM. As to `Clc1ccc(CN2CCc3c([nH]c4ccccc34)C2)cc1Cl`, the IC50 was 48.5 µM.

With `CC(NCc1ccc(Cl)c(Cl)c1)C(O)c1ccccc1` (centres undefined), the IC50 is 82.3 µM.

In the case of `CN1CCc2c(sc(NC(=O)c3ccc([N+](=O)[O-])o3)c2C(N)=O)C1`, the IC50 is 11 µM. `Clc1ccc(OCCCN2CCCC2)cc1Cl`: the concentration for half-maximal inhibition (IC50) is 48.4 µM. `CCN1CCN(CCNC(=O)c2ccc3c(c2)N(Cc2ccc(F)cc2)C(=O)/C(=C/c2ccccc2)S3)CC1`: the IC50 is 125 µM. Take `COc1ccc(/C=C/c2cc[n+](C(=O)Cc3ccccc3)cc2)cc1`: the IC50 is 107 µM. Take `CNCCCC1Sc2ccccc2Oc2ccccc21` (centres undefined): the IC50 was 144 µM. Regarding `Cc1ccc(NC(=O)C(=O)NNC(=O)c2cccs2)cc1`, the IC50 was 13.2 µM.

For `Cc1ccc(C(=O)N/C(=C\c2ccc(-c3ccc(Cl)cc3)o2)C(=O)NCCCN(C)C)cc1`, the IC50 was 85.8 µM. With `Nc1nnnn1/N=C/c1cc([N+](=O)[O-])ccc1O` the figure was 91.5 µM; with `O=C1C(=O)c2ccccc2-c2ccccc21`, 19 µM; with `Nc1nc2ccccc2n1CCOc1ccccc1Cl`, 63.1 µM. With `CCCCCc1ccc(OCCCC[n+]2ccccc2)c(CCCCC)c1`, the IC50 was 74.5 µM. Consider `COc1ccccc1Nc1c2ccccc2nc2ccccc12`, for which the IC50 was 80.8 µM. On to `CCn1cc(C(=O)O)c(=O)c2cc(F)c(N3CCN(C(=S)NC(=O)c4ccc(Br)cc4)CC3)cc21`, for which the IC50 was 31.2 µM. Consider `Cc1ccc2nc(NCc3ccccc3)[nH]c2c1`, for which the IC50 is 72.6 µM.

`O=C(Cn1nc(CNc2ccc(Br)cc2)[n+]2c1CCCCC2)c1ccc([N+](=O)[O-])cc1`: the IC50 was 78.8 µM. Then `N/C(=N\N=C/c1ccc(F)cc1)N/N=C\c1ccc(F)cc1`, with 75.1 µM.

As for `c1ccc(CN2CCN(c3ncnc4c3[nH]c3ccccc34)CC2)cc1`, the IC50 was 103 µM.

As for `CCn1cc(C(=O)NCCN(C)C)c(=O)c2cc(F)c(N3CCN(C)CC3)cc21`, the IC50 is 34 µM. Then `OC(CN1CCCCC1)Cn1c2ccccc2c2cc(Br)ccc21` (centres undefined), with 81.9 µM. Then `Nc1nc(N)c(Cc2ccc(Cl)cc2Cl)c(N)n1`, with 103 µM.

On to `CC(C(=O)NC1C=CS(=O)(=O)C1)N1C(=O)/C(=C/c2ccc(Cl)cc2)SC1=S` (centres undefined), for which the IC50 is 22.2 µM.
